Data set [1] has as its target T1, dopamine-β-hydroxylase (DBH) (Bos taurus, UniProt P15101).
T1 sequence (P15101 1-610): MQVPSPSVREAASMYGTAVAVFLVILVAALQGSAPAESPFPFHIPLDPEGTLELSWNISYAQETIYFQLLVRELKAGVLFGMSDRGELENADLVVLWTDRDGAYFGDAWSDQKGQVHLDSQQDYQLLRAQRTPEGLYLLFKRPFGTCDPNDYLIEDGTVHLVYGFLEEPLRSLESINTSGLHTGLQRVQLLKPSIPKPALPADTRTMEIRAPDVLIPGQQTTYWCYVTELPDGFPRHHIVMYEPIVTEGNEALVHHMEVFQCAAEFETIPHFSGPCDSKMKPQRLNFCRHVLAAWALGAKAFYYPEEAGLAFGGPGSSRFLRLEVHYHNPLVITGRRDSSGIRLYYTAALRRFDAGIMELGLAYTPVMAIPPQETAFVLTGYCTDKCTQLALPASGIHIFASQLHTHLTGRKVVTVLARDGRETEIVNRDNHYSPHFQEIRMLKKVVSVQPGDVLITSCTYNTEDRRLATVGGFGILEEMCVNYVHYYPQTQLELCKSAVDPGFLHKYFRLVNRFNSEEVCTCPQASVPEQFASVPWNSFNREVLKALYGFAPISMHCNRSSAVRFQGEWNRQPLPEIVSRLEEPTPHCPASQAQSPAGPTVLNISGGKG
The data set can be described thus: DBH enzyme inhibition kinetics, conversion of tyramine to octopamine. Format: biochemical. The following applies: several inhibitor concentrations. The method, then:
(§1) Presently invented also are methods of producing DBH inhibition in mammals, including humans, by administering an effective amount of 2-cyano-2-phenethylamine or a 2-cyano-2-(hydroxyphenyl)ethylamine compound. […] DBH activity was assayed by a standard procedure for measuring the conversion of tyramine to octopamine in the presence of DBH. J. J. Pisano, et al., Biochim. Biophy. Acta, 43, 566-68 (1960). Octopamine was assayed following sodium periodate oxidation to p-hydroxybenzaldehyde by measuring spectrophotometric absorbance at 330 nm.
Further, the changing apparent rate constant and the unchanging maxiumum reaction rate indicate that the compounds useful in the presently invented method initially are competitive blockers of substrate-enzyme interactions.

In data set [2] the target is T1, dopamine-β-hydroxylase (DBH). The data set can be described thus: Dialysis of enzyme-inhibitor complexes to test reversibility of DBH inhibition. Format: biochemical. The following applies: for activity at 1000 µM: tyramine alone = 100%; for Amount of Product Formed Pre-Dialysis: approx. 3 hour incubation with DBH; for Amount of Product Formed Post-Dialysis: dialyzed overnight, pH 5.5 acetate buffer. The method, then:
as §1
Dialysis of enzyme-inhibitor complexes was selected as the approach for testing the reversibility of the inhibition produced by these compounds. A known, reversible DBH inhibitor, fusaric acid, was utilized as a reference standard. Following approximate 3 hour incubation of DBH with one of the inhibitors, the rate of enzymatic conversion of tyramine to octopamine was measured by the standard procedure used in the enzyme kinetic analyses. Thereafter, the enzyme previously incubated with inhibitor was placed in a standard dialysis bag and dialyzed overnight against four changes of pH 5.5 acetate buffer. Following dialysis, the rate of enzymatic conversion of tyramine to octopamine again was measured.

In data set [3] the test system is peripheral dopamine (DA) and norepinephrine (NE) levels. The data set can be described thus: In vivo effect on peripheral dopamine and norepinephrine levels. More on the design: species or system spontaneously hypertensive rats. The following applies: twice; for DA / NE: per gram of tissue, about 2 hours after second dose. The procedure: One of the 2-cyano-2-phenethylamine compounds also was tested for its effect in vivo on peripheral dopamine (DA) and norepinephrine (NE) levels substantially by the procedure of DaPrada and Zurcher, Life Sciences, 19, 1161, (1976). Groups of five spontaneously hypertensive rats were dosed orally, twice, the second dose approximately 18 hours after the first, and were sacrificed about 2 hours after the second dose.

The subject of data set [4] is spontaneously hypertensive rats. The data set can be described thus: Mean arterial blood pressure in spontaneously hypertensive rats. It counts as in vivo. The following applies: 100 mg/kg intraperitoneally. The method, then: Further, spontaneously hypertensive rats were dosed with a suspension or solution of 2-cyano-2-phenethylamine hydrochloride at a dose of 100 mg/kg intraperitoneally, and mean arterial blood pressure was monitored for 260 minutes using indwelling cannulae positioned in the tail arteries. Approximate thirty percent reductions in blood pressure were observed thirty to forty minutes following administration of this compound. At 260 minutes after administration of this compound, blood pressure remained reduced by approximately twenty percent when compared to vehicle-treated controls.

For data set [5] the following is noted: Teresawa et al., Japan. Cir. J. 35, 339 (1971); cited from earlier work.
Another data set relates to DBH. The following applies: Runti et al., Il Farmaco Ed. Sci. 36, 260 (1980); cited from earlier work.
The mark [6] stands for this setting: Tyramine 10^-2 M and inhibitor 10^-3 M.
Setting [7] is: Tyramine 10^-2 M and Fusaric Acid 10^-4 M.

Structures can show the parent of a compound that is named as a salt. Where two headings read alike, the source gives them in different places.

Regarding `N#CC(CN)c1ccccc1` (stereo not shown) [2-cyano-2-phenethylamine hydrochloride], the “DBH activity versus inhibitor concentration (FIG. 1, double-reciprocal plot)” value in data set [1] is on record as “reductions in DBH activity were related directly to increasing 2-cyano-2-phenethylamine hydrochloride concentrations”. For the same compound, the activity at 1000 µM in data set [2] (3 h, Tyramine 10^-2 M and inhibitor 10^-3 M, read-out: DBH Activity Pre-Dialysis) worked out at 8%. Further, in data set [2] (setting [6]), the “Amount of Product Formed Pre-Dialysis” value stood at 15.7 nM and the “Amount of Product Formed Post-Dialysis” value is 10.5 nM. Besides, the activity at 1000 µM in data set [2] (Tyramine 10^-2 M and inhibitor 10^-3 M, read-out: DBH Activity Post-Dialysis) is 5.5%. In data set [3] (Experiment 1, 100 mg/kg orally), the “DA/NE Ratio” value is 0.0716 ± 0.004, the DA is 0.571 µg/g and the NE was 7.96 µg/g. Also, in data set [3] (Experiment 2, 100 mg/kg orally), the “DA/NE Ratio” value turned out to be 0.0628 ± 0.0013, the DA was 0.408 µg/g and the NE came to 6.47 µg/g. In data set [4] (at 260 minutes after administration), the “reduction in mean arterial blood pressure compared to vehicle-treated controls” value is listed as “approximately twenty”. In addition, the “reduction in mean arterial blood pressure” value in data set [4] (thirty to forty minutes following administration) is on record as “thirty”.
With `CCCCc1ccc(C(=O)O)nc1` [Fusaric Acid, reference compound], the activity at 100 µM in data set [2] (3 h, read-out: DBH Activity Pre-Dialysis) was found to be 2%. Besides, in data set [2] (setting [7]), the “Amount of Product Formed Pre-Dialysis” value was found to be 4.0 nM and the “Amount of Product Formed Post-Dialysis” value worked out at 169.0 nM. Also, the activity at 100 µM in data set [2] (read-out: DBH Activity Post-Dialysis) stood at 89.2%. Also, in data set [3] (Experiment 1, 50 mg/kg orally), the “DA/NE Ratio” value was 0.0994 ± 0.007, the DA was 0.819 µg/g and the NE was found to be 8.31 µg/g. In data set [3] (Experiment 2, 50 mg/kg orally), the “DA/NE Ratio” value is on record as 0.112 ± 0.0055, the DA is 0.615 µg/g and the NE stood at 5.82 µg/g. Also, the toxic effect result in data set [5] is given as “hepatotoxic”.
With phenylpicolinic acid, the “DBH inhibitory activity relative to fusaric acid” value with DBH was “twice the inhibitory activity of fusaric acid”.
